Reference: the NIST ThermoML archive (doi:10.1016/j.jct.2008.07.016)
± gives the expanded uncertainty stated by the source.

Test: molar enthalpy of vaporization or sublimation
Conditions: 298.15 K; Crystal; microcalorimetry

molar enthalpy [kcal/mol] | Compound
22.1 ± 1.1 | Brc1ccc2[nH]ccc2c1 [1H-indole, 5-bromo-]
21 ± 0.908 | Brc1ccc2c(c1)CCN2 [5-Bromoindoline]
